Results as given in PubChem BioAssay AID1159611.

Target: Retinoic acid receptor RXR-alpha (Homo sapiens) (UniProt P19793)
Assay: ligand displacement at retinoid X receptor alpha – biochemical, [3H]9-cis-retinoic acid, RXRalpha, dose response (AID 1159611)
Conditions: RXRalpha [3H]9-cis-retinoic acid displacement binding

Retinoic acid receptor RXR-alpha (Homo sapiens), sequence (P19793 whole entry, looked up): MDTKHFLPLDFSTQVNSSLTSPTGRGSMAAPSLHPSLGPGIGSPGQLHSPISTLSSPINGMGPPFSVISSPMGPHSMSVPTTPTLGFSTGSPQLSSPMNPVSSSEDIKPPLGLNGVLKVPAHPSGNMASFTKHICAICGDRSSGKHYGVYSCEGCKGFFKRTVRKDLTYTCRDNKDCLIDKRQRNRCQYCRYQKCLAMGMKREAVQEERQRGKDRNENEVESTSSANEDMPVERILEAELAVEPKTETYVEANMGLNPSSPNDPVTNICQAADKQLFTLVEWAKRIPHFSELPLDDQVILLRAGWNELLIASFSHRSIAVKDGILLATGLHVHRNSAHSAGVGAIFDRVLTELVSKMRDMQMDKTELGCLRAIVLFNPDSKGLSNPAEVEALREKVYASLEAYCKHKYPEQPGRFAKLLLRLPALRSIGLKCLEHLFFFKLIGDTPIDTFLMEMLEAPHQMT

IC50: 5.74 µM
Compound: CC1=C[C@H](O)CC(C)(C)[C@H]1/C=C/C(C)=C/C=C/C(C)=C/C=C/C=C(C)/C=C/C=C(C)/C=C/C1=C(C)C[C@@H](O)CC1(C)C
